{"source": "patent US10781183B2", "about": "“Small molecule inducers of reactive oxygen species and inhibitors of mitochondrial activity” (The Regents of the University of Michigan, priority 2016, dated 2020)", "key": {"MiaPaCa-2 cells": {"test_system": "MiaPaCa-2 cells", "experiment": "Bru-seq analysis for nascent RNA synthesis", "type": "cell-based", "description": "A bromouridine labeled RNA sequencing (Bru-seq) technique was used to better characterize molecular mechanisms of these novel agents. Bru-seq is able to capture real-time synthesis of the nascent RNA, so as to provide information on global gene transcription without interference by RNA stability or biased gene selection (Paulsen et al., 2014, Paulsen et al., 2013). […] Profiling of all genes with >1.5-fold change in expression upon treatment of QD232 or QD325 identified NRF2-mediated oxidative stress response and unfolded protein response (UPR) as key pathways implicated in drug action (FIG. 8A).\nBru-seq analysis was performed as previously reported (Paulsen et al., 2014). Briefly, 4×10^6 MiaPaCa-2 cells were placed in 10 cm dishes on Day 1. On Day 2, cells were treated with DMSO, QD232 or QD325 for 4 h. Bromouridine was added into the media to label newly synthesized nascent RNA in the last 30 min of treatment to a final concentration of 2 mM. Cells were then collected in TRIZOL and total RNA was isolated. Bromouridine containing RNA population was further isolated and sent for sequencing. Sequencing reads were mapped to the HG19 reference genome. Pre-ranked gene lists were generated for each treatment through ranking genes by fold changes in gene synthesis levels compared with control, and analyzed with GSEA (Broad Institute, MA) (Subramanian et al., 2005, Mootha et al., 2003)"}, "HPDE": {"test_system": "HPDE", "experiment": "MTT cytotoxicity assay, immortalized pancreatic cell line HPDE", "type": "cell-based, human", "conditions": "HPDE vs MiaPaCa-2", "protocol": "MiaPaCa-2, Panc-1 and BxPC-3 pancreatic cancer cell lines were obtained from the ATCC. Normal pancreatic cells HPDE and HPNE were kindly provided (Translational Oncology Program, University of […], Ann Arbor, Mich.). Gemcitabine resistant cell line MiaPaCa-2-GR (gemcitabine resistant) was kindly provided (Department of Pathology, Wayne State University, Detroit, Mich.). All cell lines were cultured as monolayer and maintained in RPMI1640 supplemented with 10% fetal bovine serum (FBS) in a humidified atmosphere with 5% CO2 at 37° C. MiaPaCa-2-GR culture was supplemented with 200 nM gemcitabine.\nCytotoxicity of compounds was evaluated with 3-(4,5-dimethylthiazol-2-yl)-2,5-diphenyltetrazolium bromide (MTT) assay. Cells were placed in 96-well plate at 3000-8000 cells/well. After overnight attachment, compounds were added to the wells at sequential dilutions (30 nM-10 μM for most cell lines). After 72 h treatment, MTT was added into the media to a final concentration of 300 μg/mL. Cells were incubated for 3 h at 37° C., and the insoluble formazan converted by viable cells were dissolved in 150 μL of DMSO. Absorbance at 570 nm was read by microplate reader (Molecular devices, Sunnyvale, Calif.), and inhibition of cell proliferation was calculated using the following formula: Inhibition of cell proliferation (%)=(1−ODtreatment/ODcontrol)×100%"}, "[1]": {"experiment": "Systemic toxicity in MiaPaCa-2 engrafted mice", "protocol": "MiaPaCa-2 cells (2.0×10^6) in a 100 μL suspension of RPMI1640 was injected subcutaneously into dorsal flank of 6-week NOD/SCID mice. Tumor size was monitored twice a week through caliper measurement using the following equation: V=d^2×D/2, where d represents width and D represents length of the tumor. In study 1, mice were randomly grouped (n=5 per group) when average tumor size reached 65 mm^3. Daily treatment was given at five days on two days off cycles. QD325 was given at 5 mg/kg in 100 μL vehicle (5% DMSO, 60% Propylene glycol, 35% Saline) by intraperitoneal injection. […] Unpaired t test was performed for data analysis and p<0.05 was considered significant. […] Procedures for study 2 with gemcitabine treatment are detailed in supplemental information.\nOn necropsy, tumors, hearts, kidneys, livers, lungs, spleens and pancreases were collected, fixed in 10% neutral buffered formalin, embedded in paraffin, and sectioned. Sections ([…]) were stained with hematoxylin and eosin to facilitate histologic examination. For Ki67 expression level, immunohistochemistry staining was performed on sections with Ki67 antibody. Embedding, sectioning and staining of samples were performed by ULAM pathology core for animal research at the University of Michigan. Representative images were taken on Olympus IX83 microscope with 20× magnification."}}}
{"molecule": "O=C1C(Nc2ccc(-c3ccccc3)cc2)=CC(=O)c2ncncc21", "note": "[QD325, 6-([1,1′-biphenyl]-4-ylamino)quinazoline-5,8-dione]", "values": [{"measurement": "apoptosis signaling (IPA analysis)", "setting": "MiaPaCa-2 cells; 4 h, QD232 3 times IC50, QD325 5 times IC50 (FIG. 4)", "result": "significant activation of apoptosis signaling"}, {"measurement": "nascent RNA synthesis of mitochondrial genome", "setting": "MiaPaCa-2 cells; 4 h, QD232 at 6.9 μM, QD325 at 5.0 μM (FIG. 10A)", "result": "inhibited"}, {"measurement": "transcription of DDIT3 and HSPA5", "setting": "MiaPaCa-2 cells; 4 h treatment, dose dependently (FIG. 8C)", "result": "significantly increased"}, {"measurement": "synthesis of NQO1 and HMOX1 RNAs", "setting": "MiaPaCa-2 cells; 4 h treatment, QD232 at 1, 2 or 3 times IC50, QD325 at 1, 2 or 5 times IC50 (FIG. 8B)", "result": "dose-dependently upregulated"}, {"measurement": "selectivity for MiaPaCa-2 over HPDE", "setting": "HPDE", "result": 3, "unit": "fold"}, {"measurement": "body weight of engrafted mice", "setting": "[1]; QD325 5 mg/kg (FIG. 12B)", "result": "not affected"}, {"measurement": "body weight of engrafted mice", "setting": "[1]; QD325 5-20 mg/kg (FIG. 13B)", "result": "not affected"}, {"measurement": "systemic toxicity at higher doses", "setting": "[1]; doses as high as 20 mg/kg", "result": "no systemic toxicity was observed"}, {"measurement": "histopathology of H&E stained organ sections", "setting": "[1]; liver, kidney, heart, lung, spleen and pancreas, QD325 5 mg/kg (FIG. 12C)", "result": "did not reveal major histopathological changes"}]}
